Literature values, collected in US20030157036A1, “Topical dapsone for the treatment of acne” (priority 2002, published 2003).

Tested on: P. acnes

For `Nc1ccc(S(=O)(=O)c2ccc(N)cc2)cc1` [Dapsone, bis(4-aminophenyl)sulfone], the minimum inhibitory concentration is given as “about 1 microgram per milliliter”.
